According to patent EP0603240B1, “SAFENING HERBICIDAL PYRAZOLYLSULFONYLUREAS” (priority 1991, dated 1993):
Like-named read-outs stand apart in the source and are kept apart here.

How the values were obtained:
Format in all cases: in vivo
[1] = system: Giant foxtail (Setaria fabergi); assay: Example 24, Procedure II: Herbicide No. 1 + co-herbicides Nos. 4, 6, 7, 12 with Antidote Nos. 15 and 17-21; conditions: Setaria
How it was run: (§1)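 Greenhouse pots, herbicide No. 1 plus co-herbicides and antidote in acetone incorporated into silt loam soil covering the corn seed bed, with giant foxtail and velvetleaf; initial overhead irrigation equal to 0.6 cm rainfall, then sub-irrigation. Antidote at 2.24 kg/ha; percent injury read 13 days after application, duplicate average.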

[2] = system: velvetleaf (Abutilon theophrasti); assay: as above; conditions: Abutilon theophrasti
How it was run: as §1

corn [3] = assay: as above; conditions: Zea mays
How it was run: as §1

corn [4] = assay: Example 3, Procedure I: antidotes against Herbicide No. 1; conditions: no antidote
How it was run: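 Herbicide and antidote, each in acetone, mixed into a soil layer covering the seeded corn bed; untreated and herbicide-only controls run alongside. Greenhouse, sub-irrigated, barnyardgrass present; herbicide 4.48 down to 0.56 kg/ha. Percent injury scored; efficacy = injury without minus with antidote.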

corn [5] = assay: Example 6, Procedure II: Herbicide No. 1 + alachlor (No. 7) with antidotes
How it was run: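 Herbicide No. 1 plus alachlor and antidote, each applied in acetone, mixed into silt loam cover soil over seeded corn; untreated and herbicide-only controls included. Given initial overhead irrigation equal to 0.6 cm rainfall, then greenhouse sub-irrigation. Percent injury scored, duplicate averages; efficacy is injury without minus with antidote.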

corn [6] = assay: Example 12, Procedure II: Herbicide No. 1 + acetochlor (No. 6) with thirteen antidotes; conditions: for % Injury Corn: no antidote
How it was run: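 Herbicide and antidote in acetone were mixed into silt loam used to cover the corn seed bed, alongside untreated and herbicide-only controls. After incorporation, an overhead irrigation equal to 0.6 cm rainfall was given, then sub-irrigation in a greenhouse. Injury was scored as percent; safening is the injury difference without versus with antidote.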

corn [7] = assay: Example 13, Procedure II: Herbicide No. 1 + acetochlor (No. 6) with dichloroacetamide antidotes; conditions: no antidote
How it was run: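 Corn seeded in silt loam, covered with soil into which herbicide No. 1 plus acetochlor and dichloroacetamide antidote (acetone) were incorporated, velvetleaf present. Initial overhead irrigation equivalent to 0.6 cm rainfall, then greenhouse sub-irrigation. Percent injury scored; safening taken as injury difference without versus with antidote.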

[8] = Herbicide No.1 0.14 kg/ha alone
[9] = Herbicide No.1 0.56 kg/ha alone

SMILES: COC(=O)c1c(Cl)nn(C)c1S(=O)(=O)NC(=O)Nc1nc(OC)cc(OC)n1 [Herbicide No. 1]
- inhibition at 1120 g/ha ([1]; read-out: % Inhibition GFT, Herb. No. 1 0.07 Kg/ha + Co-Herb. No. 4 1.12 Kg/ha, no antidote): 70%
- inhibition at 140 g/ha ([1]; read-out: % Inhibition GFT, Herb. No. 1 0.07 Kg/ha + Co-Herb. No. 6 0.14 Kg/ha, no antidote): 100%
- inhibition at 280 g/ha ([1]; read-out: % Inhibition GFT, Herb. No. 1 0.07 Kg/ha + Co-Herb. No. 7 0.28 Kg/ha, no antidote): 100%
- inhibition at 280 g/ha ([1]; read-out: % Inhibition GFT, Herb. No. 1 0.07 Kg/ha + Co-Herb. No. 12 0.28 Kg/ha, no antidote): 99%
- inhibition at 1120 g/ha ([1]; read-out: % Inhibition GFT, Herb. No. 1 0.14 Kg/ha + Co-Herb. No. 4 1.12 Kg/ha, no antidote): 80%
- inhibition at 140 g/ha ([1]; read-out: % Inhibition GFT, Herb. No. 1 0.14 Kg/ha + Co-Herb. No. 6 0.14 Kg/ha, no antidote): 100%
- inhibition at 280 g/ha ([1]; read-out: % Inhibition GFT, Herb. No. 1 0.14 Kg/ha + Co-Herb. No. 7 0.28 Kg/ha, no antidote): 100%
- inhibition at 280 g/ha ([1]; read-out: % Inhibition GFT, Herb. No. 1 0.14 Kg/ha + Co-Herb. No. 12 0.28 Kg/ha, no antidote): 99%
- inhibition at 1120 g/ha ([1]; read-out: % Inhibition GFT, Herb. No. 1 0.28 Kg/ha + Co-Herb. No. 4 1.12 Kg/ha, no antidote): 85%
- inhibition at 140 g/ha ([1]; read-out: % Inhibition GFT, Herb. No. 1 0.28 Kg/ha + Co-Herb. No. 6 0.14 Kg/ha, no antidote): 100%
- inhibition at 280 g/ha ([1]; read-out: % Inhibition GFT, Herb. No. 1 0.28 Kg/ha + Co-Herb. No. 7 0.28 Kg/ha, no antidote): 100%
- inhibition at 280 g/ha ([1]; read-out: % Inhibition GFT, Herb. No. 1 0.28 Kg/ha + Co-Herb. No. 12 0.28 Kg/ha, no antidote): 99%
- inhibition at 1120 g/ha ([1]; read-out: % Inhibition GFT, Herb. No. 1 0.56 Kg/ha + Co-Herb. No. 4 1.12 Kg/ha, no antidote): 75%
- inhibition at 140 g/ha ([1]; read-out: % Inhibition GFT, Herb. No. 1 0.56 Kg/ha + Co-Herb. No. 6 0.14 Kg/ha, no antidote): 100%
- inhibition at 280 g/ha ([1]; read-out: % Inhibition GFT, Herb. No. 1 0.56 Kg/ha + Co-Herb. No. 7 0.28 Kg/ha, no antidote): 99%
- inhibition at 280 g/ha ([1]; read-out: % Inhibition GFT, Herb. No. 1 0.56 Kg/ha + Co-Herb. No. 12 0.28 Kg/ha, no antidote): 99%
- inhibition at 1120 g/ha ([2]; read-out: % Inhibition VL, Herb. No. 1 0.07 Kg/ha + Co-Herb. No. 4 1.12 Kg/ha, no antidote): 90%
- inhibition at 140 g/ha ([2]; read-out: % Inhibition VL, Herb. No. 1 0.07 Kg/ha + Co-Herb. No. 6 0.14 Kg/ha, no antidote): 85%
- inhibition at 280 g/ha ([2]; read-out: % Inhibition VL, Herb. No. 1 0.07 Kg/ha + Co-Herb. No. 7 0.28 Kg/ha, no antidote): 90%
- inhibition at 280 g/ha ([2]; read-out: % Inhibition VL, Herb. No. 1 0.07 Kg/ha + Co-Herb. No. 12 0.28 Kg/ha, no antidote): 85%
- inhibition at 1120 g/ha ([2]; read-out: % Inhibition VL, Herb. No. 1 0.14 Kg/ha + Co-Herb. No. 4 1.12 Kg/ha, no antidote): 90%
- inhibition at 140 g/ha ([2]; read-out: % Inhibition VL, Herb. No. 1 0.14 Kg/ha + Co-Herb. No. 6 0.14 Kg/ha, no antidote): 95%
- inhibition at 280 g/ha ([2]; read-out: % Inhibition VL, Herb. No. 1 0.14 Kg/ha + Co-Herb. No. 7 0.28 Kg/ha, no antidote): 90%
- inhibition at 280 g/ha ([2]; read-out: % Inhibition VL, Herb. No. 1 0.14 Kg/ha + Co-Herb. No. 12 0.28 Kg/ha, no antidote): 90%
- inhibition at 1120 g/ha ([2]; read-out: % Inhibition VL, Herb. No. 1 0.28 Kg/ha + Co-Herb. No. 4 1.12 Kg/ha, no antidote): 95%
- inhibition at 140 g/ha ([2]; read-out: % Inhibition VL, Herb. No. 1 0.28 Kg/ha + Co-Herb. No. 6 0.14 Kg/ha, no antidote): 95%
- inhibition at 280 g/ha ([2]; read-out: % Inhibition VL, Herb. No. 1 0.28 Kg/ha + Co-Herb. No. 7 0.28 Kg/ha, no antidote): 95%
- inhibition at 280 g/ha ([2]; read-out: % Inhibition VL, Herb. No. 1 0.28 Kg/ha + Co-Herb. No. 12 0.28 Kg/ha, no antidote): 95%
- inhibition at 1120 g/ha ([2]; read-out: % Inhibition VL, Herb. No. 1 0.56 Kg/ha + Co-Herb. No. 4 1.12 Kg/ha, no antidote): 90%
- inhibition at 140 g/ha ([2]; read-out: % Inhibition VL, Herb. No. 1 0.56 Kg/ha + Co-Herb. No. 6 0.14 Kg/ha, no antidote): 95%
- inhibition at 280 g/ha ([2]; read-out: % Inhibition VL, Herb. No. 1 0.56 Kg/ha + Co-Herb. No. 7 0.28 Kg/ha, no antidote): 95%
- inhibition at 280 g/ha ([2]; read-out: % Inhibition VL, Herb. No. 1 0.56 Kg/ha + Co-Herb. No. 12 0.28 Kg/ha, no antidote): 90%
- inhibition at 1120 g/ha (corn [3]; read-out: % Inhibition Corn, Herb. No. 1 0.07 Kg/ha + Co-Herb. No. 4 1.12 Kg/ha, no antidote): 10%
- inhibition at 140 g/ha (corn [3]; read-out: % Inhibition Corn, Herb. No. 1 0.07 Kg/ha + Co-Herb. No. 6 0.14 Kg/ha, no antidote): 5%
- inhibition at 280 g/ha (corn [3]; read-out: % Inhibition Corn, Herb. No. 1 0.07 Kg/ha + Co-Herb. No. 7 0.28 Kg/ha, no antidote): 5%
- inhibition at 280 g/ha (corn [3]; read-out: % Inhibition Corn, Herb. No. 1 0.07 Kg/ha + Co-Herb. No. 12 0.28 Kg/ha, no antidote): 5%
- inhibition at 1120 g/ha (corn [3]; read-out: % Inhibition Corn, Herb. No. 1 0.14 Kg/ha + Co-Herb. No. 4 1.12 Kg/ha, no antidote): 20%
- inhibition at 140 g/ha (corn [3]; read-out: % Inhibition Corn, Herb. No. 1 0.14 Kg/ha + Co-Herb. No. 6 0.14 Kg/ha, no antidote): 20%
- inhibition at 280 g/ha (corn [3]; read-out: % Inhibition Corn, Herb. No. 1 0.14 Kg/ha + Co-Herb. No. 7 0.28 Kg/ha, no antidote): 15%
- inhibition at 280 g/ha (corn [3]; read-out: % Inhibition Corn, Herb. No. 1 0.14 Kg/ha + Co-Herb. No. 12 0.28 Kg/ha, no antidote): 10%
- inhibition at 1120 g/ha (corn [3]; read-out: % Inhibition Corn, Herb. No. 1 0.28 Kg/ha + Co-Herb. No. 4 1.12 Kg/ha, no antidote): 25%
- inhibition at 140 g/ha (corn [3]; read-out: % Inhibition Corn, Herb. No. 1 0.28 Kg/ha + Co-Herb. No. 6 0.14 Kg/ha, no antidote): 25%
- inhibition at 280 g/ha (corn [3]; read-out: % Inhibition Corn, Herb. No. 1 0.28 Kg/ha + Co-Herb. No. 7 0.28 Kg/ha, no antidote): 30%
- inhibition at 280 g/ha (corn [3]; read-out: % Inhibition Corn, Herb. No. 1 0.28 Kg/ha + Co-Herb. No. 12 0.28 Kg/ha, no antidote): 30%
- inhibition at 1120 g/ha (corn [3]; read-out: % Inhibition Corn, Herb. No. 1 0.56 Kg/ha + Co-Herb. No. 4 1.12 Kg/ha, no antidote): 40%
- inhibition at 140 g/ha (corn [3]; read-out: % Inhibition Corn, Herb. No. 1 0.56 Kg/ha + Co-Herb. No. 6 0.14 Kg/ha, no antidote): 40%
- inhibition at 280 g/ha (corn [3]; read-out: % Inhibition Corn, Herb. No. 1 0.56 Kg/ha + Co-Herb. No. 7 0.28 Kg/ha, no antidote): 45%
- inhibition at 280 g/ha (corn [3]; read-out: % Inhibition Corn, Herb. No. 1 0.56 Kg/ha + Co-Herb. No. 12 0.28 Kg/ha, no antidote): 45%
- % Injury Corn (corn [4]; Herb. No. 1 0.56 kg/ha): 7%
- % Injury Corn (corn [4]; Herb. No. 1 1.12 kg/ha): 13%
- % Injury Corn (corn [4]; Herb. No. 1 2.24 kg/ha): 38%
- % Injury Corn (corn [4]; Herb. No. 1 4.48 kg/ha): 60%
- % Injury Corn (corn [5]; Herbicide No.1 0.14 + No.7 4.48 kg/ha, no antidote): 20%
- % Injury Corn (corn [5]; [8]): 5%
- % Injury Corn (corn [5]; Herbicide No.1 0.56 + No.7 (alachlor) 4.48 kg/ha, no antidote, average of duplicates): 30%
- % Injury Corn (corn [5]; [9]): 25%
- combined corn injury (corn [6]; Herbicide No. 1 0.56 kg/ha + Herbicide No. 6 2.24 kg/ha, without an antidote): 45%
- injury to corn (corn [6]; Herbicide No. 1 0.56 kg/ha, without an antidote): 20%
- % Injury Corn (corn [6]; [8]): 15%
- % Injury Corn (corn [6]; [9]): 20%
- % Injury Corn (corn [7]; [8]): 10%
- % Injury Corn (corn [7]; [9]): 55%
- % Injury Corn (corn [7]; Herbicide No.1 2.24 kg/ha alone): 80%
